Entries after “also recorded” stand apart in the source; their conditions may differ.
Columns and labels:
GIRK1/2 = target: T1, GIRK1/2 (UniProt P48542+P48549); experiment: two-electrode voltage clamp (TEVC) in Xenopus oocytes expressing GIRK1/2 wild-type; assay type: cell-based, human GIRK1, mouse GIRK2; design: expressed in transfected cells; host or cells: Xenopus laevis oocytes (cRNA injection); conditions: for Emax: ML297 considered 100%, read-out: EMAX at GIRK1/2, % relative to ML297; for selectivity for GIRK1/2 over GIRK1/4 (in words) / EC50: TEVC; for selectivity for GIRK1/2 over GIRK1/4 (in words): GIRK1/2 versus GIRK1/4; for EC50: Xenopus oocytes, GIRK1/2 wild-type; for potency/efficacy compared to GAT1508 (in words) / activation of GIRK1/2 (in words): concentration-response, FIGS. 34A-34I; for EMAX at GIRK1/2: current normalized to basal current
T1 sequence (P48549 1-501): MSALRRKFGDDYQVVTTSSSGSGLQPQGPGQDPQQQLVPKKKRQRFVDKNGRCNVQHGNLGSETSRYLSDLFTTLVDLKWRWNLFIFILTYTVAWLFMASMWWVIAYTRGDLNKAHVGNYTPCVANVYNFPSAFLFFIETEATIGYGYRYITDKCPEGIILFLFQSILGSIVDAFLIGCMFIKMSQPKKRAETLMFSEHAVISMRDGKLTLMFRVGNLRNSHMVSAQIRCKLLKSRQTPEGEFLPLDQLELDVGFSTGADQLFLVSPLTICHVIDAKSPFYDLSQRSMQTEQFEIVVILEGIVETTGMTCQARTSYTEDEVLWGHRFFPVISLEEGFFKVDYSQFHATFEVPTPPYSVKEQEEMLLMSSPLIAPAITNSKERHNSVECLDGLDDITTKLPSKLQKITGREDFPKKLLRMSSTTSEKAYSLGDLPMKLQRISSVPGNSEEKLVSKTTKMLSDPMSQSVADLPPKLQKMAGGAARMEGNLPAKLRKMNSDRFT
T1 sequence (P48542 1-425): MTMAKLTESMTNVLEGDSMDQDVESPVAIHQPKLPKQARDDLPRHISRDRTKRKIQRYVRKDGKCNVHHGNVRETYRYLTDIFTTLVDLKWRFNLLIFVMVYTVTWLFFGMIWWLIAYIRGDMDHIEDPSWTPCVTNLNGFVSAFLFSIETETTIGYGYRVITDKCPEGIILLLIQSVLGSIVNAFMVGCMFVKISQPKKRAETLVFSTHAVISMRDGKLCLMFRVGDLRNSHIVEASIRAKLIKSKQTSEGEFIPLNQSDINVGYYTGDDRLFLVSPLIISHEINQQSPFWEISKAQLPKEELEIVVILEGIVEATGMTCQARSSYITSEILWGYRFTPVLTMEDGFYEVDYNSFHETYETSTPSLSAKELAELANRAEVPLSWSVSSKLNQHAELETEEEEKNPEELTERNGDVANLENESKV
Description: (§1) Molecular biology: For Xenopus oocyte expression, human GIRK1 and human GIRK4 cDNAs were subcloned into pGEMHE. For mammalian expression, human GIRK1 and human GIRK4 cDNAs were subcloned into pcDNA3 and pcDNA3.1/V5-His B, respectively (Invitrogen). Mouse GIRK2 cDNA was subcloned in the dual-function vector, pXoom. Point mutations were introduced using a standard Pfu-based mutagenesis technique according to the QuikChange protocol (Agilent). Mutations were verified by sequencing.
(§2) Xenopus laevis oocyte expression: Plasmid DNAs of GIRK channel subunits were linearized prior to in vitro transcription. Capped RNAs were transcribed using mMESSAGE mMACHINE T7 Transcription Kit (Thermo Fisher Scientific). Xenopus oocytes were surgically extracted, dissociated and defolliculated by collagenase treatment, and microinjected with 50 nl of a water solution containing 1 ng of each GIRK subunit RNA. For TEVC experiments, oocytes were kept 2 days at 17° C. before recording, while for NPo experiments oocytes were incubated for up to 4 days at 17° C.
(§3) Xenopus laevis oocyte expression: All cDNA constructs in the pGEMHE vector were linearized using the NheI restriction enzyme, whereas those in the pXoom vector were linearized using the XhoI restriction enzyme. Linearized cDNAs were in vitro-transcribed using the mMessage mMachine® kit (Ambion) kit. Complementary RNA (cRNA) concentrations were quantified by optical density. Xenopus oocytes were surgically extracted, dissociated, and defolliculated by collagenase treatment and microinjected with 50 nl of the desired cRNAs diluted in RNAase-free water. The use of Xenopus laevis frogs for this study was approved by the Institutional Animal Care and Use Committee (IACUC) at Northeastern University. All constructs used in this study were injected to achieve between 1-2 ng per oocyte depending on the channel. Oocytes were incubated for 2 days at 18° C.
(§4) Electrophysiology of oocytes: Whole-oocyte currents were measured by conventional two-electrode voltage clamp (TEVC) with a GeneClamp 500 amplifier (Axon Instruments). […] Barium-sensitive currents were normalized to average basal current in the vehicle solutions. The HK solution contained the following: 96 mM KCl, 1 mM NaCl, 1 mM MgCl2, 5 mM KOH/HEPES, pH 7.4. The barium solution consisted of HK+10 mM BaCl2. Five to ten oocytes from the same batch (same frog) were recorded for each group, and the experiments were repeated in at least four batches. Data acquisition and analysis were carried out using pClamp9 (Molecular Devices) and OriginPro (Microcal) software.

GIRK1/4 = target: T2, GIRK1/4 (Homo sapiens, UniProt P48544+P48549); experiment: two-electrode voltage clamp (TEVC) in Xenopus oocytes expressing GIRK1/4 wild-type; assay type: cell-based; design: expressed in transfected cells; host or cells: Xenopus laevis oocytes (cRNA injection); conditions: for activation of GIRK1/4 (in words): concentration-response, FIGS. 34A-34I; for Emax: ML297 considered 100%, read-out: EMAX at GIRK1/4, % relative to ML297; for EC50: TEVC, Xenopus oocytes, GIRK1/4 wild-type; for EMAX at GIRK1/4: current normalized to basal current; for modulation of GIRK1/4 channels (in words): Examples 5 and 6, Xenopus oocytes
T2 sequence (P48549 1-501): T1 sequence (P48549 1-501)
T2 sequence (P48544 1-419): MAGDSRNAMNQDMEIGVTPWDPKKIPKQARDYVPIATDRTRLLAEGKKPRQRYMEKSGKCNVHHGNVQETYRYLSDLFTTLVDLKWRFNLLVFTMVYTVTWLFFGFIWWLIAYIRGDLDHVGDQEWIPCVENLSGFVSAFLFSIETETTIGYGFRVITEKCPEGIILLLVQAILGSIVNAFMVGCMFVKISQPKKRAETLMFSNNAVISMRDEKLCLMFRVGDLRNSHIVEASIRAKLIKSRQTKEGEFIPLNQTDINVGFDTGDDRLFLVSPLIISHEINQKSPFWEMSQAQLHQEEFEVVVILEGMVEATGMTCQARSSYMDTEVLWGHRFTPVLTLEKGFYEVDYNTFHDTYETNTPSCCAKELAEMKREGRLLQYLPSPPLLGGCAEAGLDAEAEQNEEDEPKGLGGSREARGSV
Description: as §1, §2, §3, §4

[1] = system: BLA neurons (GIRK currents); experiment: whole-cell patch-clamp in acute brain slices, basolateral amygdala (BLA) neurons; assay type: cell-based, rat; conditions: 100 ms puff of 100 μM, compared to baseline
Method: Electrophysiological recordings from brain slices containing basolateral amygdala (BLA) neurons: Electrophysiology was performed using 150-200 g male Sprague-Dawley rats (Harlan/Envigo, Indianapolis, IN). Rats were group housed in plastic cages in standard housing conditions with ad libitum access to food and water with 12:12 light/dark cycle (lights on at 07:00 h). All experiments were conducted in accordance with the Guide for the Care and Use of Laboratory Animals (Institute for Laboratory Animal Research, The National Academies Press) and the guidelines of the IUPUI Institutional Animal Care and Use Committee. Rats were anesthetized with isoflurane and immediately decapitated. Brains were then rapidly removed, placed in ice-cold oxygenated artificial cerebrospinal fluid solution (ACSF) and coronal slices ([…]) were prepared containing the amygdala. Slices were incubated at 31° C. for 30 min and then returned to room temperature until recording. [ACSF solution in mM: 130 NaCl; 3.5 KCl; 1.1 KH2PO4; 1.3 MgCl2; 2.5 CaCl2; 30 NaHCO3; 10 glucose, 315 mOsm, 7.4 pH]. Cells were identified for recording at 40× magnification using Scientifica Slicescope microscope under DIC illumination (Scientifica, Uckfield, UK). ACSF was warmed to 30° C. and perfused at a rate of 2-3 ml/min during recordings. Compounds were added to ACSF at desired concentrations. Whole-cell patch-clamp recordings were obtained using standard techniques. Borosilicate glass electrodes (WPI, Sarasota, FL) (resistance 3-6 MΩ) were prepared and used for both recording and baclofen application. [Recording internal solution in mM: 140 K-gluconate; 2 KCl; 3 MgCl2; 10 HEPES; 5 Phosphocreatinine; 2 K-ATP; 0.2 Na-GTP, 290 mOsm, 7.4 pH]. In voltage-clamp mode, the cell was adjusted to −50 mV at the beginning of all experiments and 5 min stable baseline was established before treatment. Picospritzer II (Parker Hannifin, Hollis, NH) was utilized for local application of 100 μM GABA-B agonist baclofen in ACSF to activate GIRKs. Baseline and baclofen-induced currents were averaged from three responses per cell and analyzed using ClampFit software (Molecular Devices, San Jose, CA). […] Several control cells were subjected to baclofen at 2 min intervals for 30 min and consistent responses were observed, thus ruling out time-dependent effects.
The inventors employed whole-cell patch-clamp recording in acute brain slices to examine the effect of GAT1508. The inventors utilized brain slices that included the basolateral amygdala (BLA), a limbic structure that has been extensively described to coordinate the acquisition and expression of fear memories. […] Next, the inventors examined the response of BLA neurons to baclofen, a GABAB-receptor agonist that induces GIRK-mediated potassium currents. […]

Row | SMILES | Emax (GIRK1/2) [%] | selectivity for GIRK1/2 over GIRK1/4 (in words) (GIRK1/2) | EC50 (GIRK1/2) [µM] | potency/efficacy compared to GAT1508 (in words) (GIRK1/2) | EMAX at GIRK1/2 (GIRK1/2) | activation of GIRK1/4 (in words) (GIRK1/4) | activation of GIRK1/2 (in words) (GIRK1/2) | Emax (GIRK1/4) [%] | EC50 (GIRK1/4) [µM] | EMAX at GIRK1/4 (GIRK1/4) | further results
1 | Cc1cc(NC(=O)Nc2ccc(Cl)s2)n(-c2ccccc2)n1 [GAT1501, 1-(5-chlorothiophen-2-yl)-3-(3-methyl-1-phenyl-1H-pyrazol-5-yl)urea] | 96 | retained some selectivity | 4.05 ± 0.14 | less potent than GAT1508 for GIRK1/2 | 2.797±0.18 | did not show activation of GIRK1/4 at concentrations less than 20 μM; also recorded: negligible | – | – | – | – | –
2 | Cc1cc(NC(=O)Nc2cc(Br)cs2)n(-c2ccccc2)n1 [GAT1502, 1-(4-bromothiophen-2-yl)-3-(3-methyl-1-phenyl-1H-pyrazol-5-yl)urea] | 91 | – | 4.41 ± 0.15 | – | 2.70±0.20 | much poorer activators | much poorer activators | 104 | 3.13 ± 0.24 | 1.63±0.09 | –
3 | Cc1cc(NC(=O)Nc2cccs2)n(-c2ccccc2)n1 [GAT1506, 1-(3-methyl-1-phenyl-1H-pyrazol-5-yl)-3-(thiophen-2-yl)urea] | 155 | lacked selectivity | 17.1 ± 0.28 | less potent than GAT1508 | 3.9±1.04 | – | – | 157 | 7.02 ± 0.24 | 1.95±0.21 | –
4 | Cc1nn(-c2ccccc2)c(NC(=O)Nc2ccc(F)c(F)c2)c1Br [GAT1528] | – | – | – | – | – | – | – | – | – | – | modulation of GIRK1/2 channels (in words) (GIRK1/2; Examples 5 and 6, Xenopus oocytes): no effect on basal activity; modulation of GIRK1/4 channels (in words) (GIRK1/4): selective for GIRK1/4 inhibition against GIRK1/2 channel activity
5 | Cc1cc(NC(=O)Nc2cnc(Br)s2)n(-c2ccccc2)n1 [GAT1530, 1-(2-bromothiazol-5-yl)-3-(3-methyl-1-phenyl-1H-pyrazol-5-yl)urea] | – | lack of specificity | – | – | – | – | – | – | – | – | –
6 | Cc1cc(NC(=O)N/C=C/c2ccccc2)n(-c2ccccc2)n1 [GAT1537] | – | – | – | – | – | – | – | – | – | – | modulation of GIRK1/4 channels (in words) (GIRK1/4): little or no effect
7 | Cc1cc(NC(=O)Nc2sccc2Br)n(-c2ccccc2)n1 [GAT1570, 1-(3-bromothiophen-2-yl)-3-(3-methyl-1-phenyl-1H-pyrazol-5-yl)urea] | – | – | – | – | – | much poorer activators; also recorded: negligible | much poorer activators; also recorded: negligible | – | – | – | –
8 | Cc1cc(NC(=O)Nc2ccc(I)s2)n(-c2ccccc2)n1 [GAT1574, 1-(5-iodothiophen-2-yl)-3-(3-methyl-1-phenyl-1H-pyrazol-5-yl)urea] | – | – | – | – | – | poorer activator than the bromine analog; also recorded: negligible | poorer activator than the bromine analog; also recorded: negligible | – | – | – | –
9 | Cc1cc(NC(=O)Nc2ccc(F)s2)n(-c2ccccc2)n1 [GAT1575, 1-(5-fluorothiophen-2-yl)-3-(3-methyl-1-phenyl-1H-pyrazol-5-yl)urea] | 210 | less selective between GIRK1/2 and GIRK1/4 than GAT1508 | 9.39 ± 0.12 | highly efficacious but much less potent than GAT1508 | 4.92±0.49 | – | – | 192 | 11.2 ± 0.25 | 2.16±0.32 | –
10 | NCC(CC(=O)O)c1ccc(Cl)cc1 (stereo not drawn) [baclofen, reference compound] | – | – | – | – | – | – | – | – | – | – | current response of BLA neurons (in words) [1]: induced a significant outward current
